Source: US9566265B2, “Carbazole compounds and therapeutic uses of the compounds” (Incuron, LLC, priority 2008, dated 2017)
Read-outs that look alike come from different tables or passages of the source. Blank lines part the entries; values can stand above or below the compound they belong to.

Legend:
γH2AX = γH2AX staining (Table I); type: cell-based
ATM/ATR = ATM/ATR activation (Table I); type: cell-based
Chk1/2 = Chk1/2 phosphorylation (Table I); type: cell-based
Topo II [1] = assay: Topo II inhibition in vitro (Table I); type: biochemical
p53 = p53 activation assay, p53 responsive luciferase reporter cell line; type: cell-based, human; settings: Homo sapiens
Method: The potency of a present carbazole compound is determined by measuring an ability of the compound to inhibit NF-κB activity or to activate p53. […] Theoretically, such assays of the dose-response effect of activator compounds can be described as a sigmoidal curve expressing a degree of activation as a function of concentration. The curve also theoretically passes through a point at which the concentration is sufficient to increase activity to a level that is 50% that of the difference between a baseline and the maximal activity in the assay. […] Determination of an EC50 value is made using conventional biochemical (acellular) assay techniques or cell-based assay techniques.
The potency of a carbazole compound is determined by measuring an ability of the compound to activate p53.
The p53 activation assay for determination of the EC50 value was performed as follows:
HT1080-L (human fibrosarcoma cells with ConALuc reporter)
RCC45ConALuc (human renal cell carcinoma cell line with ConALuc reporter)
1. Two types of standard cells were used, either HT1080-L or RCC45ConALuc cells. Both cell lines stably express a p53 responsive luciferase reporter construct.
2. HT1080-L cells were grown in DMEM medium containing 10% FBS. RCC45ConALuc cells were grown in RPMI medium containing 10% FBS (Pen/Strep can be added to a final concentration of 1%, if desired). Both cell lines were grown in a humidified incubator at 37° C. with 5% CO2. For normal culturing, both cell lines were split using 1× trypsin-EDTA at a ratio of 1:20 for HT1080-L and 1:5 for RCC45ConALuc cells every 3-4 days (when cells are 80-90% confluent).
3. A day before the experiment, the cells are trypsinized for about 5 minutes in 1× tripsin/EDTA solution in 37° C. incubator and plated in 96 well plates. HT1080-L cells were seeded at a density of 1×10^4/well in standard DMEM medium in a volume of 50 μl. RCC45ConALuc were seeded at a density of 2×10^4/well in the volume of 50 uL in standard RPMI medium.
4. The next day, various carbazole compounds were prepared by dilution of stock solutions in standard DMEM medium such that the cells were treated with the final chemical concentrations in Table 1 below. Stock solutions were made up in DMSO. Typically, chemicals were made up as 20 mM stock solutions.
5. Each tested compound used two rows of a 96-well plate, thus four compounds (e.g., W, X, Y, Z) were tested in one plate simultaneously. In addition to test compounds, each plate included positive and negative controls. As positive control, 9aa was used at a dose of 3 μM. As a negative control, DMSO was used in final concentration 0.1%.
1. Dilutions of chemicals added to the plate were made up as 2× concentrations in standard DMEM and added to corresponding well in a volume of 50 μl.
2. Chemicals were diluted in standard DMEM by two time serial dilutions starting from 40 μM (2× of highest concentration, e.g., 20 μM). For one cell line, the minimum volume was 125 μL of 2× working solution of chemical of each concentration in standard DMEM.
4. Sixteen hours following compound addition, all wells with the highest concentrations of compounds are checked microscopically for the presence of toxic effect, because death of cells caused by compounds may not allow detecting luciferase activity. If cytotoxocity is evident, other doses of the same compounds were checked for the presence of toxicity. The lowest dose causing toxic effect was recorded.
5. After microscopic examination, 15 μl of Bright Glo luciferase assay system were added to each well and after 5 min incubation at RT, the plates were read on a 96 well plate luminometer with a measurement time of 0.1 sec. A shaking step was included before measurement.
6. The folds of luciferase activation for each concentration of each chemical were calculated by dividing the detected luciferase activity at each chemical concentration by the average of the luciferase activity for the DMSO control on the same plate.

Bloodstream T. brucei = assay: T. brucei bloodstream form in vitro killing; type: cell-based, Trypanosoma brucei
Method: Preliminary T. brucei inactivation experiments were performed in vitro. The life cycle of T. brucei involves a “procyclic” developmental stage in a tsetse fly, and a “bloodstream” form in humans. All studies were performed with the bloodstream stage of the parasite, because it is the disease-causing developmental stage.
Suramin, a conventional anti-HAT drug, was used as a positive control.
Bloodstream T. brucei was seeded (3×10^3 cells/mL) in 24-well (500 uL of the media per well) plate. […] Control cultures received equal volumes of DMSO.

Bacillus subtilis = assay: antibacterial cytotoxicity assay, gram(+) bacteria (OD600); type: cell-based; settings: B. subtilis, 48 hours, over a range of potencies; FIG. 13B
Method: In vitro test to evaluate the effect of carbazole compounds on gram(-) and gram(+) bacteria. Two days prior to the start of the cytotoxicity assay, inoculate DH5-α and B. subtilis into 1 ml of corresponding media from glycerol stocks. Allow to grow during the course of the day at 37° C. with shaking. Streak each bacteria on the appropriate agar plates using a sterile inoculation loop and allow to grow overnight at 37° C. in the bacteria incubator. Using a sterile inoculation loop, pick a single colony of bacteria and inoculate 5 ml of the corresponding media in a 14 ml snap cap tube. Grow overnight ( 16 h) at 37° C. with shaking. […] Dilute 5 ml cultures of DH5-α and B. subtilis to an OD600 nm of 0.002, which corresponds to about 2×10^6 cells/ml in a volume sufficient for the experiment (dependent on the number of plates). Plate out 50 μl into each well of X 96-well plates (X=# plates needed for a given experiment). […] Chemicals for testing are prepared by dilution of stock solutions in LB Broth or Nutrient Broth for DH5-α and B. subtilis studies, respectively. Cells are treated with the final chemical concentrations presented in the scheme below (Table 2). Stock solutions are made up in DMSO. […] However, this concentration is dependent on the solubility of a given chemical and actual stock concentrations must be noted at time of experiment. Each library chemical to be tested requires 2 rows of a 96-well plate, thus 4 chemicals ([…]) can be tested in one plate simultaneously. In addition to test chemicals, each plate should include positive and negative controls. As positive control, ampicillin is used at 100 μg/ml. […] Dilutions of chemicals to be added to the plate are made up as 2× concentrations in appropriate bacteria media and added to corresponding wells in a volume of 50 μl. […] This process is repeated until all 10 2× doses are prepared. […] Following the addition of carbazole compounds to 96-well plates containing bacteria, plates are transferred to the 37° C. bacteria incubator for 48 hours. After the incubation, the OD600 mm for each well of the 96-well plates will be measured. […] The % DMSO control is plotted vs compound concentration to generate sigmoid shaped curves. After three runs are complete, the raw data for all three runs is used for IC50 calculations.

HB 101 E. coli = assay: antibacterial cytotoxicity assay, gram(−) bacteria (OD600); type: cell-based; settings: 48 hours, over a range of potencies, FIG. 13A
[2] = tested on: HCT-116, DLD1, Caki1 and MDA-MB-231 tumors; assay: various human tumour xenografts sc; type: in vivo, nude or SCID mice; settings: tumor cells inoculated as a cell suspension
[3] = tested on: human HCT-8 ileocecal adenocarcinoma xenografts
[4] = tested on: human HT-29 colon adenocarcinoma xenografts
in vivo = settings: nude, mouse, po
[5] = tested on: Caki1 human renal cell carcinoma cells; assay: Caki1 renal cell carcinoma xenograft efficacy test
bacteria = assay: antibacterial cytotoxicity assay, comparison with ampicillin control; type: cell-based
Method: In particular, the effect of carbazole compounds of the present invention on gram positive (Bacillus subtilis) and gram negative (DH5-α) bacteria was determined by the following procedure, and is summarized in FIGS. 13A and 13B.
Each library chemical to be tested requires 2 rows of a 96-well plate, thus 4 chemicals (e.g. W, X, Y, Z) can be tested in one plate simultaneously. In addition to test chemicals, each plate should include positive and negative controls. As positive control, ampicillin is used at 100 μg/ml. As a negative control, DMSO is used in an amount equal to the highest volume of test compound used (˜0.25% DMSO for 50 μM).
Besides a positive control added in one concentration on each plate, the positive control of ampicillin is added to each assay run in a full concentration range (3 fold dilutions) to ensure proper and robust assay performance (estimated by comparison of dose response curves among runs).
The average OD600 nm of the test compound solutions are compared to that of the DMSO control by dividing the average OD600 nm of the test solution by that of the DMSO control and multiplying by 100 to produce the % DMSO control (i.e. % cytotoxicity). The % DMSO control is plotted vs compound concentration to generate sigmoid shaped curves. After three runs are complete, the raw data for all three runs is used for IC50 calculations.

[6] = tested on: Plasmodium falciparum (strain D10); assay: Plasmodium falciparum in vitro culture, infected erythrocytes; type: cell-based; settings: tested at 29, 57, 143 nM or 143 nM only; FIG. 12
Method: In particular, the effect of carbazole compounds on the malaria parasite was tested by culturing Plasmodium falciparum (strain D10) in vitro in the presence or absence of test compounds.
In each experiment, 1000 erythrocytes were assessed microscopically to determine the number of infected cells.

Topo II [7] = assay: Topo II inhibition in cells (Table I); type: cell-based
[8] = 16 h, HT1080-L or RCC45ConALuc reporter cells, 16 h, read-out: EC50 value (p53 activation)
[9] = p.o. at MTD, 5 days on/2 days off per week, Example 15 5, Example 7 30, Example 13 25 mg/kg/d

SMILES: CCN(CC)CCn1c2ccc3c(c2c2c4c(ccc21)C(=O)CC4)CCC3=O.Cl [Example 3, 6-[2-(Diethylamino)ethyl]-10,11-dihydro-1H-dicyclopenta[c,g]carbazole-3,9(2H,6H)-dione hydrochloride]
- γH2AX staining (γH2AX): no
- ATM/ATR activation (ATM/ATR): no
- Chk1/2 phospho (Chk1/2): no
- Topo II inhibition in vitro (Topo II [1]): ligation
- Ames test (Ames test): negative

SMILES: CCCNCCCn1c2ccc(C(C)=O)cc2c2c3c(ccc21)C(=O)CC3 [Example 13]
- EC50 (p53; [8]): 0.22 µM
- elimination of parasites (Bloodstream T. brucei; 48 hrs, up to 200 nM Example 7, 20 nM Example 13, 3 nM Example 15): completely eliminated T. brucei
- IC50 (Bloodstream T. brucei; Trypanosoma brucei, read-out: IC50 (concentration that killed 50% of the parasites), bloodstream stage, 48 hrs of culture): 6 to 11 nM
- antibacterial effect (Bacillus subtilis): antibacterial effect
- antibacterial effect (HB 101 E. coli): antibacterial effect
- antitumor efficacy [2]: antitumor efficacy
- Toxicity (%) MWL ([3]; mouse, in vivo): 8.5 ± 2.9%
- Antitumor Activity MTGI (%) [3, 9]: 35.7 ± 20.0%
- Toxicity (%) lethality ([3]; same): 0%
- CR (%) ([3]; same, complete tumor response): 0%
- PR (%) ([3]; same, partial tumor response): 0%
- Antitumor Activity TDT ([3]; same, tumor doubling time): 5.6 ± 1.2 days
- delay of tumor growth compared to the vehicle control (double time 4.8 days) ([3]; text b677): 17%
- delay of tumor growth (control double time 7.8 days) [4]: 50%
- inhibitory rate / tumor growth inhibition [4]: 48%
- Antitumor Activity MTGI (%) [4, 9]: 47.6 ± 6.7%
- Toxicity (%) lethality ([4]; same): 0%
- CR (%) ([4]; same, complete tumor response): 0%
- Toxicity (%) MWL ([4]; same, maximum weight loss of pretreatment body weight): 4.4 ± 2.2%
- PR (%) ([4]; same, partial tumor response): 0%
- Antitumor Activity TDT ([4]; same, tumor doubling time): 11.7 ± 1.2 days
- MTD at 4 weeks (in vivo): 25 mg/kg/day
- tumor growth inhibition compared to the vehicle control ([5]; Day 24 (end of treatment), oral gavage 5 day on/2 day off, Example 7 30, Example 15 5, Example 13 25, Sunitinib 40 mg/kg): 62%
- side effects ([5]; oral, 4 weeks 5 day on/2 day off): severest side effects

- EC50 (p53; [8]): 0.04 µM
SMILES: CC(C)NCCn1c2ccc3c(c2c2c4c(ccc21)C(=O)CC4)CCC3=O [Example 17]
- antibacterial effect (Bacillus subtilis): antibacterial effect
- antibacterial effect (HB 101 E. coli): antibacterial effect
- effectiveness against bacteria compared with the ampicillin control (bacteria): more effective

- EC50 (p53; [8]): 0.09 µM
- EC50 (p53; Table 3, test compounds of the malaria experiment, read-out: EC50, μM (p53 activation assay)): 0.09 µM
SMILES: CCNCCCn1c2ccc3c(c2c2c4c(ccc21)C(=O)CC4)CCC3=O.Cl [Example 18]
- anti-malarial activity, parasitemia reduction [6]: anti-malarial activity comparable to quinacrine
- antibacterial effect (Bacillus subtilis): antibacterial effect
- antibacterial effect (HB 101 E. coli): antibacterial effect

SMILES: COc1cccc2c1C(=O)c1c(O)c3c(c(O)c1C2=O)C[C@@](O)(C(=O)CO)C[C@@H]3O[C@H]1C[C@H](N)[C@H](O)[C@H](C)O1 [doxorubicin]
- γH2AX staining (γH2AX): yes
- ATM/ATR activation (ATM/ATR): yes
- Chk1/2 phospho (Chk1/2): yes
- Topo II inhibition in cells (Topo II [7]): yes
- Topo II inhibition in vitro (Topo II [1]): relegation
- Ames test (Ames test): negative
